Broadly, the Ki is a measure of affinity in units of concentration, obtained from inhibition or displacement.

The target of one test is T1, chimeric human H3 receptor (Homo sapiens, UniProt Q9Y5N1, E19D).
T1 construct: made in house; host or cells: Sf9 insect cells (baculovirus infection); P2 membrane preparation
T1 sequence (Q9Y5N1 with tags, fused parts or gaps E19D): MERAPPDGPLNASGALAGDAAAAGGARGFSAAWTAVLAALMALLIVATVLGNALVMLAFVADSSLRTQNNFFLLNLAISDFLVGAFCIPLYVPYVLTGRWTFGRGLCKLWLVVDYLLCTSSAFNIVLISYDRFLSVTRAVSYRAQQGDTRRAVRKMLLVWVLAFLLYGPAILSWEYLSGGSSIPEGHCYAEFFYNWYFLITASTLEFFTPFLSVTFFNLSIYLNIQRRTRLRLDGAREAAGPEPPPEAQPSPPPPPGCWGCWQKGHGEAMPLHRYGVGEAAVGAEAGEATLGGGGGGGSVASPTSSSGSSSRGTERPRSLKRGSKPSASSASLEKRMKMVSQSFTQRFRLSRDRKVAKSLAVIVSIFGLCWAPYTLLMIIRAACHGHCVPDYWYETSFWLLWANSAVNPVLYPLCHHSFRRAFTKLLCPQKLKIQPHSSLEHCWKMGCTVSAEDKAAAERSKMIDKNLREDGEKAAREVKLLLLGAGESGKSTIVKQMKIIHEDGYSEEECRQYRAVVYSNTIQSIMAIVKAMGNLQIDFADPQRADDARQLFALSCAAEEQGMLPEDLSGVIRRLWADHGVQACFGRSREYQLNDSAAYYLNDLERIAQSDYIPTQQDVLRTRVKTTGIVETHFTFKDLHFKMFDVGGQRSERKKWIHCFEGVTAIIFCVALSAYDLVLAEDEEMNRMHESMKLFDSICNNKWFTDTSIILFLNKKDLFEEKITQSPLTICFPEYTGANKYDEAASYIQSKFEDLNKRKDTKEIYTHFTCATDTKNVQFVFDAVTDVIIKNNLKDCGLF
The test is described as follows: Chimeric human H3 receptor GTP binding assay (agonist-stimulated GTP-gamma35S binding, Example 7). The class given is biochemical.
Conditions: not given
An excerpt: This Example illustrates a representative assay for evaluating agonist-stimulated GTP-gamma^35S binding (“GTP binding”) activity. […] This agonist-stimulated GTP binding activity can also be used to detect partial agonism mediated by antagonist compounds. A compound analyzed in this assay is referred to herein as a “test compound.”
Four independent baculoviral stocks (one directing the expression of the chimeric human H3 receptor and three directing the expression of each of the three subunits of a heterotrimeric G-protein) are used to infect a culture of Sf9 cells as described above. P2 membranes are prepared as described above, and agonist-stimulated GTP binding on the P2 membranes is assessed using histamine (Sigma Chemical Co., St. Louis, Mo.) as agonist in order to ascertain that the receptor/G-protein-alpha-beta-gamma combination(s) yield a functional response as measured by GTP binding. P2 membranes are resuspended by Dounce homogenization (tight pestle) in GTP binding assay buffer (50 mM Tris pH 7.4, 120 mM NaCl, 5 mM MgCl2, 2 mM EGTA, 1 mg/ml BSA, 0.2 mg/ml bacitracin, 0.02 mg/ml aprotinin, 0.01 mg/ml saponin, 10 μM GDP) and added to assay tubes at a concentration of 35 μg protein/reaction tube. […] In competition experiments, non-radiolabeled test compounds are added to separate reactions at concentrations ranging from 10^−10 M to 10^−6 M along with 1 μM histamine to yield a final volume of 0.20 ml.
Neutral antagonists are antagonists that are substantially free of inherent agonist activity, and include those test compounds that reduce the histamine-stimulated GTP binding activity towards, but not below, baseline levels. In contrast, in the absence of added histamine, inverse agonists reduce the GTP binding activity of the receptor-containing membranes below baseline.
After a 60-min incubation at room temperature, reactions are terminated by vacuum filtration over WHATMAN GF/C filters (pre-soaked in wash buffer, 0.1% BSA) followed by washing with ice-cold wash buffer (50 mM Tris pH 7.4, 120 mM NaCl). The amount of receptor-bound (and thereby membrane-bound) GTP-gamma^35S is determined by measuring the filter-bound radioactivity, preferably by liquid scintillation spectrometry of the washed filters. […] Data is expressed as percent above basal (baseline). The results of GTP binding experiments are analyzed using SIGMAPLOT software (SPSS Inc., Chicago, Ill.).
IC50 values are calculated by non-linear regression analysis of dose-response curves using Kaleidograph (Synergy Software, Reading, Pa.).
(In general: GTPγS is a poorly hydrolysed GTP analogue; its binding reports G protein activation.)
Take `O=C(CN1CCN(c2ccc3c(c2)OCO3)CC1)N1CCN(C2CCCC2)CC1` [Compound 257, 1-(1,3-benzodioxol-5-yl)-4-[2-(4-cyclopentylpiperazin-1-yl)-2-oxoethyl]piperazine]: the Ki is < 1000 nM.
For the molecule `CC(C)N1CCN(C(=O)CN2CCN(c3ccc4c(c3)OCO4)CC2)CC1` [Compound 258, 1-(1,3-benzodioxol-5-yl)-4-[2-(4-isopropylpiperazin-1-yl)-2-oxoethyl]piperazine], the Ki was < 1000 nM.
As to `CC(C)N1CCN(C(=O)CN2CCN(c3cccc(Cl)c3Cl)CC2)CC1` [Compound 262, 1-(2,3-dichlorophenyl)-4-[2-(4-isopropylpiperazin-1-yl)-2-oxoethyl]piperazine], the Ki was < 1000 nM.

The same test, now with this note: assay of Example 7; "*" in Ki of Table II; read-out: Ki.
In the case of `CC(=O)c1ccc(N2C[C@@H](C)N(CC(=O)N3CCN(C4CCC4)CC3)C[C@@H]2C)cc1` (relative stereo) [Compound 1269, rel-1-(4-{(2R,5S)-4-[2-(4-cyclobutylpiperazin-1-yl)-2-oxoethyl]-2,5-dimethylpiperazin-1-yl}phenyl)ethanone], the Ki was < 1000 nM.

The same test, now with this note: assay of Example 7; symbol * in column headed Ki of Table II; read-out: Ki.
For `O=C(CN1CCN(c2ccc(F)cc2F)CC1)N1C[C@H]2C[C@@H]1CN2C1CCC1` [Compound 247, (1R,4R)-2-cyclobutyl-5-{[4-(2,4-difluorophenyl)piperazin-1-yl]acetyl}-2,5-diaza bicyclo[2.2.1]heptane], the Ki is < 1000 nM.
`O=C(c1ccccc1)c1ccc(N2CCN(CC(=O)N3CCN(C4CCC4)CC3)CC2)cc1` [Compound 248, (4-{4-[2-(4-cyclobutylpiperazin-1-yl)-2-oxoethyl]piperazin-1-yl}phenyl)(phenyl)methanone]: the Ki is < 1000 nM.
As to `O=C(c1ccc(N2CCN(CC(=O)N3CCN(C4CCC4)CC3)CC2)cc1)C1CC1` [Compound 249, (4-{4-[2-(4-cyclobutylpiperazin-1-yl)-2-oxoethyl]piperazin-1-yl}phenyl)(cyclopropyl) methanone], the Ki is < 1000 nM.
Consider `O=C(c1ccncc1)c1ccc(N2CCN(CC(=O)N3CCN(C4CCC4)CC3)CC2)cc1` [Compound 250, (4-{4-[2-(4-cyclobutylpiperazin-1-yl)-2-oxoethyl]piperazin-1-yl}phenyl)(pyridin-4-yl)methanone], for which the Ki was < 1000 nM.
Still for that read-out and setting: as for `O=C(c1ccccc1)c1ccc(N2CCN(CC(=O)N3CCN(C4CCCC4)CC3)CC2)cc1` [Compound 251, (4-{4-[2-(4-cyclopentylpiperazin-1-yl)-2-oxoethyl]piperazin-1-yl}phenyl)(phenyl)methanone], the figure is < 1000 nM; as for `O=C(CN1CCN(c2cccc(C(=O)N3CC[C@H]4CCCC[C@@H]4C3)c2)CC1)N1CCN(C2CCC2)CC1` [Compound 252, (4aR,8aS)-2-(3-{4-[2-(4-cyclobutylpiperazin-1-yl)-2-oxoethyl]piperazin-1-yl}benzoyl) decahydroisoquinoline], < 1000 nM; as for `O=C(CN1CCN(c2ccc(C(=O)N3CC[C@H]4CCCC[C@@H]4C3)cc2)CC1)N1CCN(C2CCC2)CC1` [Compound 253, (4aR,8aS)-2-(4-{4-[2-(4-cyclobutylpiperazin-1-yl)-2-oxoethyl]piperazin-1-yl}benzoyl) decahydroisoquinoline], < 1000 nM.
On to `O=C(CN1CCN(c2cccc(C(=O)N3CC[C@@H]4CCCC[C@@H]4C3)c2)CC1)N1CCN(C2CCC2)CC1` [Compound 254, (4aS,8aS)-2-(3-{4-[2-(4-cyclobutylpiperazin-1-yl)-2-oxoethyl]piperazin-1-yl}benzoyl) decahydroisoquinoline], for which the Ki is < 1000 nM.
Take `O=C(CN1CCN(c2ccc(C(=O)N3CC[C@@H]4CCCC[C@@H]4C3)cc2)CC1)N1CCN(C2CCC2)CC1` [Compound 255, (4aS,8aS)-2-(4-{4-[2-(4-cyclobutylpiperazin-1-yl)-2-oxoethyl]piperazin-1-yl}benzoyl) decahydroisoquinoline]: the Ki is < 1000 nM.
For `CC(C)N1CCN(C(=O)CN2CCN(c3ccc(F)cc3F)CC2)CC1` [Compound 264, 1-(2,4-difluorophenyl)-4-[2-(4-isopropylpiperazin-1-yl)-2-oxoethyl]piperazine], the inhibition constant Ki is < 1000 nM.
For `Cc1cccc(C)c1N1CCN(CC(=O)N2CCN(C(C)C)CC2)CC1` [Compound 268, 1-(2,6-dimethylphenyl)-4-[2-(4-isopropylpiperazin-1-yl)-2-oxoethyl]piperazine], the Ki was < 1000 nM.
As for `CC(=O)c1cnc(N2CCN(CC(=O)N3CCN(C4CCC4)CC3)CC2)nc1` [Compound 269, 1-(2-{4-[2-(4-cyclobutylpiperazin-1-yl)-2-oxoethyl]piperazin-1-yl}pyrimidin-5-yl)ethanone], the Ki is < 1000 nM.
Consider `Cc1ccc(F)c(-c2ccc(N3CCN(CC(=O)N4CCN(C5CCC5)CC4)CC3)cc2)c1Cl` [Compound 273, 1-(2′-chloro-6′-fluoro-3′-methylbiphenyl-4-yl)-4-[2-(4-cyclobutylpiperazin-1-yl)-2-oxoethyl]piperazine], for which the Ki is < 1000 nM.
For the molecule `O=C(CN1CCN(c2ccc(-c3ccccc3Cl)cc2)CC1)N1CCN(C2CCC2)CC1` [Compound 278, 1-(2′-chlorobiphenyl-4-yl)-4-[2-(4-cyclobutylpiperazin-1-yl)-2-oxoethyl]piperazine], the Ki was < 1000 nM.
As to `CC(C)N1CCN(C(=O)CN2CCN(c3ccc(Cl)c(Cl)c3)CC2)CC1` [Compound 283, 1-(3,4-dichlorophenyl)-4-[2-(4-isopropylpiperazin-1-yl)-2-oxoethyl]piperazine], the Ki is < 1000 nM.
With `CCN1CCN(C(=O)CN2CCN(c3ccc(OC)c(OC)c3)CC2)CC1` [Compound 284, 1-(3,4-dimethoxyphenyl)-4-[2-(4-ethylpiperazin-1-yl)-2-oxoethyl]piperazine], the Ki was < 1000 nM.
The same measure, in the same setting: the value for `COc1ccc(N2CCN(CC(=O)N3CCN(C(C)C)CC3)CC2)cc1OC` [Compound 285, 1-(3,4-dimethoxyphenyl)-4-[2-(4-isopropylpiperazin-1-yl)-2-oxoethyl]piperazine] was < 1000 nM.
On the same count and under the same terms, the value for `CC(=O)c1ccc(-c2cccc(N3CCN(CC(=O)N4CCN(C5CCC5)CC4)CC3)c2)cc1` [Compound 288, 1-(3′-{4-[2-(4-cyclobutylpiperazin-1-yl)-2-oxoethyl]piperazin-1-yl}biphenyl-4-yl)ethanone] was < 1000 nM; that for `O=C(CN1CCN(c2cccc(C(=O)N3CCCCCC3)c2)CC1)N1CCN(C2CCC2)CC1` [Compound 289, 1-(3-{4-[2-(4-cyclobutylpiperazin-1-yl)-2-oxoethyl]piperazin-1-yl}benzoyl)azepane] was < 1000 nM.
Take `O=C(CN1CCN(c2cccc(Br)c2)CC1)N1CCN(C2CCC2)CC1` [Compound 293, 1-(3-bromophenyl)-4-[2-(4-cyclobutylpiperazin-1-yl)-2-oxoethyl]piperazine]: the Ki is < 1000 nM.
On to `CC(=O)c1ccc(N2CCN(CC(=O)N3CCN(C4CCC4)CC3)CC2)c(Cl)c1` [Compound 295, 1-(3-chloro-4-{4-[2-(4-cyclobutylpiperazin-1-yl)-2-oxoethyl]piperazin-1-yl}phenyl)ethanone], for which the Ki was < 1000 nM.
Still for that read-out and setting: as for `O=C(CN1CCN(c2ccc(-c3ccc(F)c(Cl)c3)cc2)CC1)N1CCN(C2CCC2)CC1` [Compound 297, 1-(3′-chloro-4′-fluorobiphenyl-4-yl)-4-[2-(4-cyclobutylpiperazin-1-yl)-2-oxoethyl]piperazine], the figure is < 1000 nM.

The values are drawn from patent publication US7851474B2, “Dipiperazinyl ketones and related analogues” (Neurogen Corporation, priority 2005, dated 2010).
